Assay [1] addresses KRAS G12D / Ras binding domain of C-RAF (Homo sapiens (Human), UniProt P01116, G12D). Kind of assay: RAS:RAF-RBD binding assay (cRaf), TR-FRET. To be noted: biotinylated KRAS G12D, GST-C-RAF RBD.
Description: Compounds are added to KRAS and then after a 30-minute incubation time the RAF-RBD and detection antibodies are added. Small molecule inhibitors that block the interaction of c-RAF-RBD prevent generation of a TR-FRET signal.
Biotinylated KRAS G12D protein is diluted to 20 nM in assay buffer (20 mM HEPES pH 7.5, 150 mM sodium chloride, 10 mM magnesium chloride, and 0.01% Tween20).
Each test compound (10 mM stock in DMSO) is diluted in DMSO to make a 10-point, 3-fold dilution series in a 384-well low dead volume microplate (Labcyte, catalog #LP-0200).
Each well of the assay plate receives 5 μL of Biotinylated KRAS G12D assay solution and is incubated at room temperature for 30 minutes. Each well then receives 5 μL of 100 nM GST-C-RAF RBD protein and a 1:100 dilution of both anti-GST-d2 (Cisbio catalog #61GSTDLA) and Streptavidin-Tb cryptate (Cisbio catalog #610SATLA) in assay buffer and the plate is mixed and briefly centrifuged followed by a 60 minute incubation at room temperature.
The apparent effect as a function of compound concentration is fit to a four-parameter logistic equation.
The target in assay [2] is KRAS protein containing G12D mutation (Homo sapiens (Human), UniProt P01116, G12D). Kind of assay: SOS-catalyzed nucleotide exchange assay (GNE), TR-FRET. It is filed as biochemical. To be noted: biotinylated KRAS G12D, SOS and GTP, 60-minute incubation. On the procedure: Compounds are added to this complex and then after a 60-minute incubation time the mixture is treated with SOS and unlabeled GTP. Small molecule inhibitors stabilize the Bodipy-GDP complex whereas the untreated protein rapidly exchanges Bodipy-GDP for unlabeled GTP resulting in reduced TR-FRET signal.
This solution is referred to as biotinylated KRAS G12D stock solution.
Background: TR-FRET usually uses a lanthanide donor and a delayed reading to cut background.

In assay [3] the test system is AsPC-1 cells containing homozygous KRAS-G12D activating mutation. In words: Cellular phospho-ERK assay (Examples 1a-106). It is filed as cell-based. To be noted: AsPC-1 cells, 2 hours, ratio of p-Erk vs total Erk, read-out: IC50 (nM) pERK (Cell). An excerpt: 5% CO? overnight. […] Assay plates were read on a EnVision Multimode Plate Reader (PerkinElmer) and the ratio of p-Erk vs total Erk in each well was used as the final readout.

Molecules are shown by their SMILES. Read-outs that look alike come from different tables or passages of the source.

Broadly, the IC50 is the midpoint of a concentration-inhibition curve.

Sequence of KRAS protein containing G12D mutation (P01116 other isoform, or with tags, fused parts or gaps G12D (already in the parent)): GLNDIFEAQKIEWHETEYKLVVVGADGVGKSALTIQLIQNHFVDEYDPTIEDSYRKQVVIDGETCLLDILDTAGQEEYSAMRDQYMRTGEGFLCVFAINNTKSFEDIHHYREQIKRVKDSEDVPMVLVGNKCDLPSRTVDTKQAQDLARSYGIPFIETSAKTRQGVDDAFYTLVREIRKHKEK
Sequence of KRAS G12D / Ras binding domain of C-RAF (P01116 other isoform, or with tags, fused parts or gaps G12D (already in the parent)): as above

Consider `Cc1c(Cl)cc2[nH]ncc2c1-c1c(F)cc2c(N3CC4CCC(C3)N4)nc(OCC3(CN(C)C)CC3)nc2c1F` [Example 58, 1-(1-(((4-(3,8-diazabicyclo[3.2.1]octan-3-yl)-7-(6-chloro-5-methyl-1H-indazol-4-yl)-6,8-difluoroquinazolin-2-yl)oxy)methyl)cyclopropyl)-N,N-dimethylmethanamine], for which the IC50 stood at 45300 nM in assay [1] (IC50 (nM) (cRaf)); 256 nM in assay [2]; 5900 nM in assay [3] (Homo sapiens, ASPC1, 2 h).
Consider `Oc1cc(-c2c(F)cc3c(N4CC5CC(O)C(C4)N5)nc(OCC4(CN5CCOCC5)CC4)nc3c2F)c2ccccc2c1` (single isomer, unassigned) [Example 16], for which the IC50 was 871 nM in assay [1] (IC50 (nM) (cRaf)); 30.2 nM in assay [2]; 5760 nM in assay [3] (Homo sapiens, ASPC1, 2 h).
For `Cc1cc(O)cc(-c2c(F)cc3c(N4CC5CCC(C4)N5)nc(OCC4(CN5CCOCC5)CC4)nc3c2F)c1SC(F)(F)F` [Example 49, 3-(4-(3,8-diazabicyclo[3.2.1]octan-3-yl)-6,8-difluoro-2-((1-(morpholinomethyl)cyclopropyl)methoxy)quinazolin-7-yl)-5-methyl-4-((trifluoromethyl)thio)phenol], the 50% inhibitory concentration (IC50) was found to be 24700 nM in assay [1] (IC50 (nM) (cRaf)); 184 nM in assay [2]; 4990 nM in assay [3] (Homo sapiens, ASPC1, 2 h).
`CN1CCC[C@H]1COc1nc(N2CC3CCC(C2)N3)c2cc(Cl)c(-c3cc(O)cc4ccccc34)c(F)c2n1` [Ex. 5, 4-(4-(3.8-diazabicyclo[3.2.1]octan-3-yl)-6-chloro-8-fluoro-2-(((S)-1-methylpyrrolidin-2-yl)methoxy)quinazolin-7-yl)naphthalen-2-ol]: the half-maximal inhibitory concentration (IC50) in assay [1] (read-out: IC50 (nM) (cRaf)) is 17300 nM; in assay [2] it was 106 nM; in assay [3] it was 6640 nM.
On to `CN(C)CC1(COc2nc(N3C[C@@H]4C[C@H](O)C(C)(C3)N4)c3cc(Cl)c(-c4cc(O)cc5ccccc45)c(F)c3n2)CC1` (stereo in doubt) [Example 41, 3-(6-chloro-2-((1-((dimethylamino)methyl)cyclopropyl)methoxy)-8-fluoro-7-(3-hydroxynaphthalen-1-yl)quinazolin-4-yl)-5-methyl-3,8-diazabicyclo[3.2.1]octan-6-ol], for which the half-inhibitory concentration (IC50) in assay [1] (IC50 (nM) (cRaf)) is 1270 nM; in assay [2], 20.3 nM; in assay [3] (Homo sapiens, ASPC1, 2 h) it was 2840 nM.
For the molecule `CN(C)CC1(COc2nc(N3C[C@H]4C[C@@H](O)[C@@H](C3)N4)c3cc(Cl)c(-c4cc(O)cc5ccccc45)c(F)c3n2)CC1` (single isomer, unassigned) [Example 18b], the IC50 came out at 2680 nM in assay [1] (IC50 (nM) (cRaf)), 77.3 nM in assay [2] and 50800 nM in assay [3].
Consider `CN(C)CC1(COc2nc(N3CC4CCC(F)(C3)N4)c3cc(Cl)c(-c4cc(O)cc5ccccc45)c(F)c3n2)CC1` (stereo not drawn) [Example 34, 4-(6-chloro-2-((1-((dimethylamino)meth-yl)cyclopropyl)meth-oxy)-8-fluoro-4-(1-fluoro-3,8-diaza-bicyclo[3.2.1]octan-3-yl)quinaozlin-7-yl)naphthalen-2-ol], for which the half-maximal inhibitory concentration (IC50) in assay [1] (IC50 (nM) (cRaf)) amounted to 38300 nM; in assay [2], 2560 nM; in assay [3] (Homo sapiens, ASPC1, 2 h), 11500 nM.
The like results for `CN(C)CC1(COc2nc(N3CC4(C)CCC(C)(C3)N4)c3cc(F)c(-c4cc(O)cc5ccccc45)c(F)c3n2)CC1` [Example 32, 4-(4-(1,5-dimethyl-3,8-diazabicy-clo[3.2.1]octan-3-yl)-2-((1-((dimethyl-amino)methyl)cyclo-propyl)methoxy)-6,8-difluoroquinazolin-7-yl)naphthalen-2-ol] were, in that order, 1430 nM, 64.2 nM and 2260 nM.
The matching figures for `C[C@]12CC[C@H](CN(c3nc(OC[C@@]45CCCN4C[C@H](F)C5)nc4c(F)c(-c5cc(O)cc6cccc(Cl)c56)c(F)cc34)C1)N2` [Ex. 89, 5-chloro-4-(6,8-difluoro-2-(((2R,7aS)-2-fluorotetrahydro-1H-pyrrolizin-7a(5H)-yl)methoxy)-4-((1S,5R)-1-methyl-3,8-diazabicyclo[3.2.1]octan-3-yl)quinazolin-7-yl)naphthalen-2-ol]: 31.8 nM, 0.565 nM and 46 nM.
As for `Cc1cc(N)nc(-c2c(F)cc3c(N4CC5CCC(C4)N5)nc(OCC4(CN5CCOCC5)CC4)nc3c2F)c1C(F)(F)F` [Ex. 87, 6-(4-(3.8-diazabicyclo[3.2.1]octan-3-yl)-6,8-difluoro-2-((1-(morpholinomethyl)cyclopropyl)methoxy)quinazolin-7-yl)-4-methyl-5-(trifluoromethyl)pyridin-2-amine], the IC50 in assay [1] (read-out: IC50 (nM) (cRaf)) was found to be 11400 nM; in assay [2], 37.4 nM; in assay [3], 1340 nM.
Turning to `CN(C)CC1(COc2nc(N3CC4C[C@@H](O)[C@@](C)(C3)N4)c3cc(Cl)c(-c4cc(O)cc5ccccc45)c(F)c3n2)CC1` (stereo in doubt) [Example 43, 3-(6-chloro-2-((1-((dimethylamino)methyl)cyclopropyl)methoxy)-8-fluoro-7-(3-hydroxynaphthalen-1-yl)quinazolin-4-yl)-5-methyl-3,8-diazabicyclo [3.2.1]octan-6-ol], the 50% inhibitory concentration (IC50) in assay [1] (IC50 (nM) (cRaf)) is 2200 nM; in assay [2], 74.3 nM; in assay [3] (Homo sapiens, ASPC1, 2 h) it was 12600 nM.
Turning to `Cc1cc2[nH]nc(C)c2c(-c2c(F)cc3c(N4C[C@H]5CC[C@@](C)(C4)N5)nc(OC[C@]4(CN(C)C)CC4(F)F)nc3c2F)c1Cl` [Ex 79, 1-((1R)-1-(((7-(5-chloro-3,6-dimethyl-1H-indazol-4-yl)-6,8-difluoro-4-((1S,5R)-1-methyl-3,8-diazabicyclo[3.2.1]octan-3-yl)quinazolin-2-yl)oxy)methyl)-2,2-difluorocyclopropyl)-N,N-dimethylmethanamine], the IC50 in assay [1] (IC50 (nM) (cRaf)) came out at 4410 nM; in assay [2] it was 72.5 nM; in assay [3] (Homo sapiens, ASPC1, 2 h), 1930 nM.
The like results for `Cc1cc2[nH]ncc2c(-c2c(F)cc3c(N4CC5CCC(C4)N5)nc(OCC4(CN5CCOCC5)CC4)nc3c2F)c1C(F)(F)F` [Ex 72, 4-((1-(((4-(3,8-diazabicyclo[3.2.1]octan-3-yl)-6,8-difluoro-7-(6-methyl-5-(trifluoromethyl)-1H-indazol-4-yl)quinazolin-2-yl)oxy)methyl)cyclopropyl)methyl)morpholine] were, in that order, 7440 nM, 30.8 nM and 2500 nM.
As for `Cc1cc2[nH]ncc2c(-c2c(F)cc3c(N4C[C@H]5CC[C@@](C)(C4)N5)nc(OC[C@@]45CCCN4C[C@H](F)C5)nc3c2F)c1C(F)(F)F` [Ex 86, 6,8-difluoro-2-(((2R,7aS)-2-fluorotetrahydro-1H-pyrrolizin-7a(5H)-yl)methoxy)-7-(6-methyl-5-(trifluoromethyl)-1H-indazol-4-yl)-4-((1S,5R)-1-methyl-3,8-diazabicyclo [3.2.1]octan-3-yl)quinazoline], the IC50 worked out at 268 nM in assay [1] (IC50 (nM) (cRaf)); 0.723 nM in assay [2]; 213 nM in assay [3] (Homo sapiens, ASPC1, 2 h).
Consider `CN(C)C[C@]1(COc2nc(N3CC4CCC(C3)N4)c3cc(Cl)c(-c4cc(O)cc5ccccc45)c(F)c3n2)CC1(F)F` (atropisomer, axis not shown) [Example 11a, 4-(4-(3.8-diazabicyclo[3.2.1]octan-3-yl)-6-chloro-2-(((S)-1-((dimethylamino)methyl)-2,2-difluorocyclopropyl)methoxy)-8-fluoroquinazolin-7-yl)naphthalen-2-ol], for which the IC50 came out at 4240 nM in assay [1] (read-out: IC50 (nM) (cRaf)), 24.1 nM in assay [2] and 2080 nM in assay [3].
Consider `Cc1cc2[nH]ncc2c(C2Cc3nc(OCC4(CN5CC[C@@H](F)C5)CC4)nc(N4C[C@H]5CC[C@@](C)(C4)N5)c3C(=O)N2)c1C(F)(F)F` (single isomer, unassigned) [Ex. 98a], for which the half-inhibitory concentration (IC50) worked out at 34200 nM in assay [1] (read-out: IC50 (nM) (cRaf)), 380 nM in assay [2] and 7270 nM in assay [3].
On to `O=c1oc(-c2cc(O)cc3ccccc23)cc2nc(OCC3(CN4CCOCC4)CC3)nc(N3CC4CCC(C3)N4)c12` [Ex. 95, 4-(3.8-diazabicyclo[3.2.1]octan-3-yl)-7-(3-hydroxynaphthalen-1-yl)-2-((1-(morpholinomethyl)cyclopropyl)methoxy)-5H-pyrano[4.3-d]pyrimidin-5-one], for which the half-maximal inhibitory concentration (IC50) in assay [1] (read-out: IC50 (nM) (cRaf)) stood at 15900 nM; in assay [2], 73.4 nM; in assay [3], 10800 nM.
The like results for `CN(C)C[C@]1(COc2nc(N3CC4CCC(C3)N4)c3cc(Cl)c(-c4cc(O)cc5ccccc45)c(F)c3n2)CC1(F)F` (atropisomer, axis not shown) [Example 11b, 4-(4-(3.8-diazabicyclo[3.2.1]octan-3-yl)-6-chloro-2-(((S)-1-((dimethylamino)methyl)-2,2-difluorocyclopropyl)methoxy)-8-fluoroquinazolin-7-yl)naphthalen-2-ol] were, in that order, 7240 nM, 131 nM and 6260 nM.
`CC[C@H]1N[C@H]2CC[C@@H]1N(c1nc(OCC3(CN(C)C)CC3)nc3c(F)c(-c4cc(O)cc5ccccc45)c(Cl)cc13)C2` [Example 39, 4-(6-chloro-2-((1-((dimethylamino)methyl)cyclopropyl)methoxy)-4-((1S,4S,6R)-6-ethyl-2,5-diazabicyclo[2.2.2]octan-2-yl)-8-fluoroquinazolin-7-yl)naphthalen-2-ol]: the IC50 in assay [1] (IC50 (nM) (cRaf)) is 4670 nM; in assay [2], 46.7 nM; in assay [3] (Homo sapiens, ASPC1, 2 h), 3310 nM.

Source of the values: patent publication US20240239788A1, “SMALL MOLECULE INHIBITORS OF KRAS G12D MUTANT” (Merck Sharp & Dohme LLC, priority 2021, published 2024).
